Where two headings read alike, the source gives them in different places.
How the values were obtained:
[1] = Biological Oxygen Demand (BOD5), 5 day test; conditions: 50% (wt.) concentration in water, ratio BOD5 to COD
From the text: The oxygen demand of a compound during chemical oxidation and biological degradation is an indication of the persistence of the chemical in the environment. […] BOD is the amount of oxygen required for biological oxidation by bacteria growing under aerobic conditions. The ratio of BOD to COD can be used to assess whether a compound is readily biodegradable. When BOD5 is expressed as a percentage of COD, a BOD5 that is <1% of COD indicates a relatively nonbiodegradable compound and >10% of COD indicates a relatively degradable compound (the subscript “5” denotes a 5 day test).

[2] = 25% (wt.) concentration in water; cited from earlier work
[3] = 50% (wt.) concentration in water, in five days, value with literature reference 17, cited from earlier work

Compound | Biodegradability (BOD5/COD)% [1] | Freezing point [2] | Biodegradability (BOD5/COD)% ([3]; listed as Potassium formate) | Biodegradability (BOD5/COD)% ([3]; listed as potassium formate) | Biodegradability (BOD5/COD)% ([1]; listed as Potassium Succinate) | Biodegradability (BOD5/COD)% ([1]; listed as succinate)
CC(=O)[O-].[K+] [Test No. 2, potassium acetate] | highly biodegradable | −18.0^14 °C | – | – | – | –
OCCO [Ethylene Glycol] | 61% | −12.0^20 °C | – | – | – | –
O=C[O-].[K+] [Test No. 3, potassium formate] | – | −15.0^17 °C | 100%^17 | 100% | – | –
CC(O)CO (stereo not drawn) [Propylene Glycol] | 59% | −11.0^21 °C | – | – | – | –
O=C([O-])CCC(=O)[O-].[K+].[K+] [Test No. 1, potassium succinate] | – | −12.5^14 °C | – | – | 68% | highly biodegradable

Source: US7938981B2, “Deicing and heat transfer fluid compositions” (Bioamber S.A.S., priority 2009, dated 2011)
